From publication PMC6985722 (Antimicrobial Agents and Chemotherapy, 2020)
Several values for one entry are separate records, joined by “and”; a condition that tells them apart may be missing. Equal entries are not always repeated.

Key:
RSV-A Memphis-37b [1] = experiment: RSV human challenge study: disease severity (total symptom score, nasal mucus weight); format: in vivo
Description: (§1) Subjects were screened outside the RSV season for eligibility, including measurement of RSV-A Memphis-37b-specific neutralizing antibody titer, ≤90 days before virus challenge. Eligible subjects were admitted to the quarantine unit on day −2 or day −1 and were inoculated intranasally on day 0 with the challenge virus, RSV-A Memphis-37b (4 log10 PFU/ml, given as one 0.4-ml installation per naris), as previously described ([26]). Nasal wash sampling every 12 h for confirmation of RSV infection by qualitative integrated cycler PCR ([12], [19]) began on the morning of day 2. Treatment began 12 h (±1 h) after collection of a nasal wash sample confirming RSV infection or on the evening of day 5 if RSV infection remained unconfirmed by the morning of day 5.
(§2) The study comprised two consecutive cohorts. […] Subjects were discharged on day 12 if nasopharyngeal swab samples tested negative by RSV rapid antigen assay (QuickVue RSV test; Quidel, San Diego, CA, USA). If such tests were positive or if a subject remained symptomatic, quarantine was extended to allow further observation. All subjects were evaluated on day 28 (±3 days).
(§3) Twice-daily collection of nasal wash samples allowed measurement of viral load via RT-qPCR and quantitative culture. RT-qPCR results were reported as PFUe/ml when the standard curve included in each assay contained a known infectious amount (PFU) of RSV, as described previously ([30]). Subjects reported the occurrence and severity of symptoms three times daily using a 10-item subject symptom diary card as previously reported ([12]) (see Supplemental Methods). Throughout the quarantine period, used tissues were collected and weighed daily, and total nasal mucus weight was recorded. PK assessments were based on venous blood samples. Safety assessments included measurement of vital signs, standard 12-lead ECG recordings, spirometry, a complete physical examination, and a respiratory-directed physical examination. AEs were monitored daily, coded according to the Medical Dictionary for Regulatory Activities Version 20.0, and graded according to the National Cancer Institute Common Terminology Criteria for Adverse Events Version 4.0 (see Supplemental Methods for further details).
(§4) The primary efficacy endpoint was AUC for RSV viral load, as measured by RT-qPCR, in nasal wash samples taken twice daily from just before the first dose until discharge (day 12). Viral load data were provided as log10 PFUe/ml; AUC (log10 PFUe/ml · h) was calculated using the trapezoid rule. Secondary efficacy endpoints related to viral load were AUC of RSV viral load, as assessed by quantitative culture, and the following measures, which were each assessed using both RT-qPCR and quantitative culture: peak viral load, time to peak viral load, and time to <1 log10 (for RT-qPCR) or undetectable (for quantitative culture) viral load (considered to occur at the first confirmed undetectable assessment after which no further virus was detected). Secondary efficacy endpoints related to clinical symptoms included AUC total symptom score; peak total symptom score; time to peak total symptom score; and the total weight of nasal mucus produced. Other secondary outcomes were safety, PK, and sequence detection of viral variants (see Supplemental Methods).
All statistical analyses were performed using two-sided testing. Student’s t tests were performed for normally distributed data with a constant variance; otherwise, the Satterthwaite t test or nonparametric tests were used. For the mucus weight analysis, the least-squares mean was calculated from a mixed model with repeated measures, adjusted for baseline mucus weight and treatment group as covariates and subject as a random effect.

RSV-B isolates = test system: RSV-B isolates; set-up: method as in ref 16 = [16]; 16. Cockerill GS , Bedernjak A , Brookes D , Dowey R , Harland R , Johnson SM , Mathews N , Paradowski M , Peeples M , Scott C , Steadman M , Taylor G , Thom M , Thomas E , Ward SE , Watterson D , You; conditions: n = 16 isolates; cited from earlier work
RSV-A Memphis-37b [2] = experiment: RSV human challenge study: viral load in nasal wash by RT-qPCR; format: in vivo; conditions: for AUC of viral load (RT-qPCR), fixed time period of 6.5 days, mean (SE) / AUC of viral load (RT-qPCR), fixed time period of 6.5 days, reduction in mean vs placebo: fixed 6.5 days
Description: as §1, §2, §3, §4
The primary efficacy analysis population (the ITT-I analysis set) comprised all randomized subjects who received challenge virus and at least one dose of study drug and met the criterion for laboratory-confirmed RSV infection (presence of detectable RSV). Sensitivity analyses were based on a subset of the ITT-I population who had first detectable RSV infection prior to study drug administration (the ITT-A analysis set) and a fixed time period of 6.5 days (comprising data for all subjects for 6.5 days of evaluation after the first dose, regardless of the staggered commencement of dosing). […]

[3] = 200 mg, ITT-A, fixed time period of 6.5 days
[4] = 350 mg, ITT-A, fixed time period of 6.5 days

NCc1ccc2c(c1)nc(CN1C(=O)C3(CC3)c3ccc(F)cc31)n2CCCC(F)(F)F [RV521]
AUC of total symptom score, mean (SE) (RSV-A Memphis-37b [1]; 200 mg, ITT-A): 117.9 (35.26) score x hours
AUC of total symptom score, reduction in mean vs placebo (RSV-A Memphis-37b [1]; 200 mg, ITT-A): 73.06%
Daily nasal mucus weight, LS mean (RSV-A Memphis-37b [1]; 200 mg, ITT-A): 0.32 g
Peak total symptom score, mean (SE) (RSV-A Memphis-37b [1]; 200 mg, ITT-A): 2.5 (0.49)
Time to peak total symptom score, mean (SE) (RSV-A Memphis-37b [1]; 200 mg, ITT-A): 1.82 (0.67) days
Time to resolution from peak total symptom score, mean (SE) (RSV-A Memphis-37b [1]; 200 mg, ITT-A): 2.73 (0.39) days
AUC of total symptom score, mean (SE) (RSV-A Memphis-37b [1]; [3]): 117.41 (35.26) score x hours
AUC total symptom score, mean (SE) (RSV-A Memphis-37b [1]; 200 mg, ITT-I): 111.35 (33.88) score × hours
Daily nasal mucus weight, LS mean (RSV-A Memphis-37b [1]; 200 mg, ITT-I): 0.33 g
Time to peak total symptom score, mean (SE) (RSV-A Memphis-37b [1]; 200 mg, ITT-I): 2.08 (0.68) days
AUC of total symptom score, mean (SE) (RSV-A Memphis-37b [1]; 200 mg, ITT-I, fixed time period of 6.5 days): 111.35 (33.88) score x hours
AUC of total symptom score, mean (SE) (RSV-A Memphis-37b [1]; 350 mg, ITT-A): 92.98 (26.81) score x hours
AUC of total symptom score, reduction in mean vs placebo (RSV-A Memphis-37b [1]; 350 mg, ITT-A): 78.75%
Daily nasal mucus weight, LS mean (RSV-A Memphis-37b [1]; 350 mg, ITT-A): 0.26 g
Peak total symptom score, mean (SE) (RSV-A Memphis-37b [1]; 350 mg, ITT-A): 2.1 (0.49)
Time to peak total symptom score, mean (SE) (RSV-A Memphis-37b [1]; 350 mg, ITT-A): 1.26 (0.55) days
Time to resolution from peak total symptom score, mean (SE) (RSV-A Memphis-37b [1]; 350 mg, ITT-A): 2.44 (0.43) days
AUC of total symptom score, mean (SE) (RSV-A Memphis-37b [1]; [4]): 92.98 (26.81) score x hours
AUC total symptom score, mean (SE) (RSV-A Memphis-37b [1]; 350 mg, ITT-I): 82.41 (24.45) score × hours
Daily nasal mucus weight, LS mean (RSV-A Memphis-37b [1]; 350 mg, ITT-I): 0.27 g
Time to peak total symptom score, mean (SE) (RSV-A Memphis-37b [1]; 350 mg, ITT-I): 1.56 (0.57) days
AUC of total symptom score, mean (SE) (RSV-A Memphis-37b [1]; 350 mg, ITT-I, fixed time period of 6.5 days): 82.41 (24.45) score x hours
IC50 (RSV-B isolates): 1 nM
AUC of viral load (RT-qPCR), mean (SE) (RSV-A Memphis-37b [2]; 200 mg, ITT-A): 236.81 (37.63) hours x log 10 PFUe/mL
AUC of viral load (RT-qPCR), reduction in mean vs placebo (RSV-A Memphis-37b [2]; 200 mg, ITT-A): 59.74%
Peak viral load (RT-qPCR), mean (SE) (RSV-A Memphis-37b [2]; 200 mg, ITT-A): 3.63 (0.26) log10 PFUe/mL
Time to <1 log10 viral load (RT-qPCR), median (Q1, Q3) (RSV-A Memphis-37b [2]; 200 mg, ITT-A): 3.0 (3.0, 6.0) days
Time to peak viral load (RT-qPCR), mean (SE) (RSV-A Memphis-37b [2]; 200 mg, ITT-A): 0.94 (0.11) days
AUC of viral load (RT-qPCR), mean (SE) (RSV-A Memphis-37b [2]; [3]): 234.29 (37.07) log10 PFUe/mL x hours
AUC of viral load (RT-qPCR), reduction in mean vs placebo (RSV-A Memphis-37b [2]; [3]): –276.21 log10 PFUe/mL x hours
AUC of viral load (RT-qPCR), mean (SE) (RSV-A Memphis-37b [2]; 200 mg, ITT-I): 224.35 log10 PFUe/ml · h and 224.35 (37.60) log10 PFUe/ml · h
AUC of viral load (RT-qPCR), reduction in mean vs that of placebo (RSV-A Memphis-37b [2]; 200 mg, ITT-I): 55.25%
AUC of viral load (RT-qPCR, unlogged), mean (SE) (RSV-A Memphis-37b [2]; 200 mg, ITT-I): 1,087,294.53 (604,070.11) PFUe/ml · h
AUC of viral load (RT-qPCR, unlogged), reduction in mean vs that of placebo (RSV-A Memphis-37b [2]; 200 mg, ITT-I): 99.10%
Peak viral load (RT-qPCR), mean (SE) (RSV-A Memphis-37b [2]; 200 mg, ITT-I): 3.47 log10 PFUe/ml and 3.47 (0.30) log10 PFUe/ml
Time to <1 log10 viral load (RT-qPCR), median (Q1, Q3) (RSV-A Memphis-37b [2]; 200 mg, ITT-I): 3.0 days and 3.0 (3.0, 6.0) (n = 17) days
Time to peak viral load (RT-qPCR), mean (SE) (RSV-A Memphis-37b [2]; 200 mg, ITT-I): 0.95 days and 0.95 (0.11) days
Mean viral load at time of peak viral load in placebo arm (day 3; RT-qPCR), mean (SE) (RSV-A Memphis-37b [2]; 200 mg, ITT-I): 1.35 (0.36) log10 PFUe/ml
AUC of viral load (RT-qPCR), fixed time period of 6.5 days, mean (SE) (RSV-A Memphis-37b [2]; 200 mg, ITT-I): 221.98 (37.05) log10 PFUe/ml · h
AUC of viral load (RT-qPCR), fixed time period of 6.5 days, reduction in mean vs placebo (RSV-A Memphis-37b [2]; 200 mg, ITT-I): 49.08%
AUC of viral load (RT-qPCR), mean (SE) (RSV-A Memphis-37b [2]; 350 mg, ITT-A): 210.61 (29.76) hours x log 10 PFUe/mL
AUC of viral load (RT-qPCR), reduction in mean vs placebo (RSV-A Memphis-37b [2]; 350 mg, ITT-A): 64.19%
Peak viral load (RT-qPCR), mean (SE) (RSV-A Memphis-37b [2]; 350 mg, ITT-A): 3.58 (0.40) log10 PFUe/mL
Time to <1 log10 viral load (RT-qPCR), median (Q1, Q3) (RSV-A Memphis-37b [2]; 350 mg, ITT-A): 3.5 (3.0, 4.0) days
Time to peak viral load (RT-qPCR), mean (SE) (RSV-A Memphis-37b [2]; 350 mg, ITT-A): 1.65 (0.39) days
AUC of viral load (RT-qPCR), mean (SE) (RSV-A Memphis-37b [2]; [4]): 207.56 (28.74) log10 PFUe/mL x hours
AUC of viral load (RT-qPCR), reduction in mean vs placebo (RSV-A Memphis-37b [2]; [4]): –302.95 log10 PFUe/mL x hours
AUC of viral load (RT-qPCR), mean (SE) (RSV-A Memphis-37b [2]; 350 mg, ITT-I): 185.26 log10 PFUe/ml · h and 185.26 (31.17) log10 PFUe/ml · h
AUC of viral load (RT-qPCR), reduction in mean vs that of placebo (RSV-A Memphis-37b [2]; 350 mg, ITT-I): 63.05%
AUC of viral load (RT-qPCR, unlogged), mean (SE) (RSV-A Memphis-37b [2]; 350 mg, ITT-I): 1,356,521.31 (1,117,131.13) PFUe/ml · h
AUC of viral load (RT-qPCR, unlogged), reduction in mean vs that of placebo (RSV-A Memphis-37b [2]; 350 mg, ITT-I): 98.87%
Peak viral load (RT-qPCR), mean (SE) (RSV-A Memphis-37b [2]; 350 mg, ITT-I): 3.17 log10 PFUe/ml and 3.17 (0.45) log10 PFUe/ml
Time to <1 log10 viral load (RT-qPCR), median (Q1, Q3) (RSV-A Memphis-37b [2]; 350 mg, ITT-I): 3.5 days and 3.5 (3.0, 4.0) (n = 13) days
Time to peak viral load (RT-qPCR), mean (SE) (RSV-A Memphis-37b [2]; 350 mg, ITT-I): 1.63 days and 1.63 (0.34) days
Mean viral load at time of peak viral load in placebo arm (day 3; RT-qPCR), mean (SE) (RSV-A Memphis-37b [2]; 350 mg, ITT-I): 0.80 (1.07) log10 PFUe/ml
AUC of viral load (RT-qPCR), fixed time period of 6.5 days, mean (SE) (RSV-A Memphis-37b [2]; 350 mg, ITT-I): 182.59 (30.29) log10 PFUe/ml · h
AUC of viral load (RT-qPCR), fixed time period of 6.5 days, reduction in mean vs placebo (RSV-A Memphis-37b [2]; 350 mg, ITT-I): 58.12%
